Assay [1] concerns TNF-a production by LPS-stimulated adherent murine peritoneal macrophages. Conditions: literature report; cited from earlier work.
The test system of assay [2] is TNF-alpha production from LPS-stimulated human PBMC. Briefly: TNF-alpha production from LPS-stimulated human PBMC (sandwich ELISA). Format: cell-based. Conditions: FIG. 3, FIG. 5. As for the experimental part:
Bacterial lipopolysaccharide (LPS) stimulates the production of a variety of cytokines, including TNF-alpha, from human PBMC; these cytokines in turn influence the development of T cells, supporting a T helper 1 conducive milieu. Human PBMC prepared from whole blood by buoyant density centrifugation were resuspended in CTCM. […] Following incubation for 24 h at 37° C. in 5% CO2-air, the cell culture supernatants were collected and tested for TNF-alpha levels by ‘sandwich’ ELISA. Briefly, 96-well Nunc MaxiSorp (Life Technologies, Paisley, UK) plates were coated with 50 μl of a 2 μg/ml solution of mouse anti-human TNF-alpha monoclonal antibody (Pharmingen, UK) in 0.05 M carbonate/bicarbonate buffer, pH 9.6 overnight at 4° C. […] Following three washes with PBS-Tween, 50 μl of cell culture supernatants were added and incubated overnight at 4° C.; standard human TNF-alpha (Pharmingen, UK) ranging from 2000 to 31.25 pg/ml were included for each plate. […] Following four washes, the bound biotinylated antibody was detected with 50 μl of a 1:1,000 dilution of Streptavidin-peroxidase (Pharmingen, UK). At the end of an hour incubation at room temperature, the plates were thoroughly washed six times with PBS-Tween and the assay was developed by the addition of 100 μl of 0.1 mg/ml of tetramethyl benzidine subtrate (Sigma, Poole, UK) in 0.1 M sodium acetate buffer, pH 6 containing 0.03% H2O2. The enzyme reaction was stopped with 50 μl of 2.5 M H2SO4 after an incubation of 10 minutes at room temperature and the development was read at 450 nm with a spectrophotometric 96-well plate reader (Dynex).

The next assay concerns murine splenocytes. As to the kind of experiment: ConA mitogen-stimulated proliferation of murine splenocytes ([3H]-thymidine incorporation). Format: cell-based, mouse (BALB/c). The conditions noted are these: for effect on ConA induced splenocyte proliferation (cpm vs concentration): FIG. 1. As for the experimental part:
Proliferation was assessed by the incorporation of [^3H]-thymidine into DNA. Eight-week-old female BALB/c mice were obtained from Harlan (Bicester, Oxon, UK) and given food and water ad libitum. Splenocyte suspensions were prepared by removing the spleens and placing them into RPMI 1640 medium. The spleens were forced through 70-μm-pore-size wire gauzes using the plunger from a 5-ml syringe to produce a single cell suspension. […] Leucocytes were washed twice with RPMI 1640 medium with 2% (vol/vol) foetal calf serum (FCS) and resuspended in complete cell culture medium (CTCM) consisting of RPMI 1640 medium with 5% FCS, 2 mM L-glutamine, and 5×10^−5 M 2-mercaptoethanol. HSL compounds were tested at doubling down dilutions ranging from 1 mM to 0.1 μM in a final volume of 200 μl of CTCM, containing ConA (Sigma, Poole, UK) at 1 μg/ml and 100,000 spleen cells. Following incubation for 48 h at 37° C. in 5% CO2-air, 0.25 μCi [^3H]-thymidine (Amersham) in 10 μl volume made up in RPMI 1640 medium was added and the cells were incubated for a further 24 h. Cells were harvested onto fibreglass filters with a Packard filtermate harvester. After the addition of 25 μl of MicroScint-O (Packard) to each well the filters were counted with the Packard TopCount scintillation counter.
Mitogen (Concanavalin A) induced murine splenocyte proliferation was indicated by the incorporation of tritated thymidine into the DNA in the mouse spleen cells as shown by counts per minute using the scintillation counter. The inhibitory effect of an HSL compound being tested on cell proliferation was indicated by a reduction in counts per minute.
For orientation: Incorporation of labelled thymidine or its analogues reports DNA synthesis.

The test system of another assay is murine spleen cells. The conditions noted are these: literature report; cited from earlier work.
A further assay deals with human PBMC. Briefly: ConA mitogen-stimulated proliferation of human PBMC ([3H]-thymidine incorporation). The conditions noted are these: FIG. 2. Format: cell-based. Here is the method: II. ConA Mitogen-Stimulated Proliferation of Human PBMC
Blood specimens were obtained with consent from healthy human volunteers. Human peripheral blood mononuclear cells (PBMC) were isolated from heparinised whole blood by buoyant density centrifugation over Histopaque 1077 (Sigma, Poole, UK) at 600 g for 20 minutes. PBMC harvested from the ‘buffy’ layers were washed twice with RPMI 1640 medium and resuspended in CTCM. HSL compounds were tested at similar dilutions as for murine splenocytes in 200 μl of CTCM, containing 1 μg/ml of ConA and 100,000 PBMC. Human PBMC were incubated for 48 h at 37° C. in 5% CO2-air, followed by pulsing with 0.25 μCi [^3H]-thymidine (see above). After a further incubation of 24 h cells were harvested onto fibreglass filters and then counted in the presence of MicroScint-O with the Packard TopCount.
Concanavalin induced cell proliferation of human peripheral blood mononuclear cells (PBMC) was tracked, as described in I above, by a measurement of counts per minute using the scintillation counter. The inhibitory effect of an HSL compound being tested on cell proliferation was indicated by a reduction in counts per minute.
Columns B, C and D represent different sources of human PBMC samples used.

Consider `CCCCCCCCCC(=O)CC(=O)N[C@H]1CCOC1=O` [Example 6, N-(3-Oxododecanoyl)-L-homoserine lactone], for which the “effect on TNF-a production by LPS-stimulated adherent murine peritoneal macrophages” value in assay [1] was “inhibiting”. For the same compound, the “effect on LPS induced TNF-α secretion by human PBMC” value (from here on “effect … by human PBMC”) in assay [2] was “inhibited the secretion of the T helper 1-supporting cytokine TNF-α”. The “effect on ConA induced splenocyte proliferation (cpm vs concentration)” value in the assay with murine splenocytes was “inhibits splenocyte proliferation”. Moreover, the “effect on concavalin A mitogen stimulated proliferation of murine spleen cells” value with murine spleen cells was “inhibiting”. In addition, the “effect on proliferation of human PBMC stimulated with Concanavalin A (cpm vs concentration)” value with human PBMC is on record as “inhibited proliferation of human PBMC”.

On to `CCCCCCCCCCCC(=O)CC(=O)N[C@H]1CCOC1=O` [Example 11, N-(3-Oxotetradecanoyl)-L-homoserine lactone], for which, in assay [2], the “effect … by human PBMC” value is “inhibited the secretion of the T helper 1-supporting cytokine TNF-α”. In addition, the “effect on proliferation of human PBMC stimulated with Concanavalin A (cpm vs concentration)” value with human PBMC was “inhibited proliferation of human PBMC”.

For the compound `CCCC(=O)CC(=O)N[C@H]1CCOC1=O` [OHHL, N-(3-oxohexanoyl)-L-homoserine lactone], the “effect … by human PBMC” value in assay [2] is “difference in activity between OHHL and OdDHL is marked”.

Regarding `CCCCCC(=O)CC(=O)N[C@H]1CCOC1=O` [OOHL, N-(3-oxooctanoyl)-L-homoserine lactone], the “effect on ConA induced splenocyte proliferation (cpm vs concentration)” value in the assay with murine splenocytes is recorded as “failed to inhibit proliferation”.

In the case of “N-(3-Hydroxy-9-tetradecenoyl)-L-homoserine lactone [Example 24]”, the IC50 in the assay with murine splenocytes (Experiment I, ConA 1 μg/ml, 100,000 spleen cells, read-out: IC50, inhibition of ConA induced murine splenocyte proliferation (column A)) was 15 µM.

Source of the values: US20030171371A1, “Immunosuppressant n-acyles homoserine lactones” (priority 2000, published 2003).
